Measurements: ChEMBL document CHEMBL1201862, “PubChem BioAssay data set” (2004)
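Method: 48-hour compound exposure of cells in 96-well plates, five concentrations, linear interpolation of endpoints. Abbreviation: GI50, concentration required for 50% inhibition of growth.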 Activity calls are given as the source filed them. Rule as the data show it: active = GI50 up to about 1.1 µM and inactive = higher.

Assays:
Assay in all cases: inhibition of tumour cell growth, NCI panel, 48 h
XF498 = system: XF498
SW-620 = system: SW-620
A549 = system: A549
M19-MEL = system: M19-MEL
LOX IMVI = system: LOX IMVI
786-0 = system: 786-0
COLO 205 = system: COLO 205
RXF 393 = system: RXF 393
SN12C = system: SN12C
UACC-62 = system: UACC-62
NCI-H460 = system: NCI-H460
CAKI-1 = system: CAKI-1
UO-31 = system: UO-31
KM-20L2 = system: KM-20L2
OVCAR-3 = system: OVCAR-3
SK-OV-3 = system: SK-OV-3
HT-29 = system: HT-29
IGROV-1 = system: IGROV-1
SNB-75 = system: SNB-75
SF-268 = system: SF-268
OVCAR-4 = system: OVCAR-4
HOP-62 = system: HOP-62
SK-MEL-28 = system: SK-MEL-28
EKVX = system: EKVX
NCI-H23 = system: NCI-H23
Malme-3M = system: Malme-3M
U-251 = system: U-251
M14 = system: M14
HCC 2998 = system: HCC 2998
SNB-78 = system: SNB-78
DLD-1 = system: DLD-1
ACHN = system: ACHN
HCT-15 = system: HCT-15
SNB-19 = system: SNB-19
DMS-114 = system: DMS-114
LXFL 529 = system: LXFL 529
HL-60 = system: HL-60
CCRF-CEM = system: CCRF-CEM
HOP-18 = system: HOP-18
K562 = system: K562
OVCAR-8 = system: OVCAR-8
DMS-273 = system: DMS-273
TK-10 = system: TK-10
MOLT-4 = system: MOLT-4
SR = system: SR
SF-295 = system: SF-295
NCI-H522 = system: NCI-H522
UACC-257 = system: UACC-257
KM12 = system: KM12
SF-539 = system: SF-539
NCI-H226 = system: NCI-H226
SK-MEL-2 = system: SK-MEL-2
RPMI-8226 = system: RPMI-8226
SK-MEL-5 = system: SK-MEL-5
HCT-116 = system: HCT-116
RXF 631 = system: RXF 631
OVCAR-5 = system: OVCAR-5
MCF7 = system: MCF7
A498 = system: A498

`CC(=O)O[C@H]1CC2C=CC3C(CCC31)O2` (stereo not given in full) was tested, and the GI50 (XF498) was > 100 µM (inactive), the GI50 (SW-620) was > 100 µM (inactive) and the GI50 (A549) was > 100 µM (inactive). For the same compound, the GI50 (M19-MEL) was > 100 µM (inactive), the GI50 (LOX IMVI) was > 100 µM (inactive) and the GI50 (786-0) was > 100 µM (inactive). For the same compound, the GI50 (COLO 205) was > 100 µM (inactive), the GI50 (RXF 393) was > 100 µM (inactive) and the GI50 (SN12C) was > 100 µM (inactive). The GI50 (UACC-62) was > 100 µM (inactive), the GI50 (NCI-H460) was > 100 µM (inactive) and the GI50 (CAKI-1) was > 100 µM (inactive). For the same compound, the GI50 (UO-31) was > 100 µM (inactive), the GI50 (KM-20L2) was > 100 µM (inactive) and the GI50 (OVCAR-3) was > 100 µM (inactive). The GI50 (SK-OV-3) was > 100 µM (inactive), the GI50 (HT-29) was > 100 µM (inactive) and the GI50 (IGROV-1) was > 100 µM (inactive). The GI50 (SNB-75) was > 100 µM (inactive), the GI50 (SF-268) was > 100 µM (inactive) and the GI50 (OVCAR-4) was > 100 µM (inactive). The GI50 (HOP-62) was > 100 µM (inactive), the GI50 (SK-MEL-28) was > 100 µM (inactive) and the GI50 (EKVX) was > 100 µM (inactive). For the same compound, the GI50 (NCI-H23) was > 100 µM (inactive), the GI50 (Malme-3M) was > 100 µM (inactive) and the GI50 (U-251) was > 100 µM (inactive). For the same compound, the GI50 (M14) was > 100 µM (inactive), the GI50 (HCC 2998) was > 100 µM (inactive) and the GI50 (SNB-78) was > 100 µM (inactive). For the same compound, the GI50 (DLD-1) was > 100 µM (inactive), the GI50 (ACHN) was > 100 µM (inactive) and the GI50 (HCT-15) was greater than 100 µM. The GI50 (SNB-19) was > 100 µM (inactive), the GI50 (DMS-114) was > 100 µM (inactive) and the GI50 (LXFL 529) was > 100 µM (inactive). The GI50 (HL-60) was 80 µM (inactive), the GI50 (CCRF-CEM) was > 100 µM (inactive) and the GI50 (HOP-18) was > 100 µM (inactive). For the same compound, the GI50 (K562) was > 100 µM (inactive), the GI50 (OVCAR-8) was > 100 µM (inactive) and the GI50 (DMS-273) was > 100 µM (inactive). For the same compound, the GI50 (TK-10) was > 100 µM (inactive) and the GI50 (MOLT-4) was > 100 µM (inactive).
With `CS(=O)(=O)c1c(N)c2nc(Cl)cn2c2nc3ccccc3nc12` the GI50 (XF498) was > 100 µM (inactive), the GI50 (SW-620) was > 100 µM (inactive) and the GI50 (A549) was > 100 µM (inactive). For the same compound, the GI50 (M19-MEL) was > 100 µM (inactive), the GI50 (LOX IMVI) was > 100 µM (inactive) and the GI50 (786-0) was 62.4 µM (inactive). For the same compound, the GI50 (COLO 205) was > 100 µM (inactive), the GI50 (SN12C) was > 100 µM (inactive) and the GI50 (UACC-62) was > 100 µM (inactive). For the same compound, the GI50 (SR) was > 100 µM (inactive), the GI50 (SF-295) was > 100 µM (inactive) and the GI50 (NCI-H522) was 48 µM (inactive). For the same compound, the GI50 (NCI-H460) was > 100 µM (inactive), the GI50 (CAKI-1) was > 100 µM (inactive) and the GI50 (UACC-257) was > 100 µM (inactive). The GI50 (UO-31) was > 100 µM (inactive), the GI50 (KM-20L2) was > 100 µM (inactive) and the GI50 (KM12) was > 100 µM (inactive). The GI50 (OVCAR-3) was > 100 µM (inactive), the GI50 (SK-OV-3) was > 100 µM (inactive) and the GI50 (HT-29) was > 100 µM (inactive). For the same compound, the GI50 (IGROV-1) was > 100 µM (inactive), the GI50 (SNB-75) was 81.3 µM (inactive) and the GI50 (SF-268) was > 100 µM (inactive). The GI50 (OVCAR-4) was > 100 µM (inactive), the GI50 (HOP-62) was > 100 µM (inactive) and the GI50 (SK-MEL-28) was > 100 µM (inactive). For the same compound, the GI50 (EKVX) was > 100 µM (inactive), the GI50 (NCI-H23) was 68.9 µM (inactive) and the GI50 (Malme-3M) was > 100 µM (inactive). The GI50 (SF-539) was > 100 µM (inactive), the GI50 (U-251) was > 100 µM (inactive) and the GI50 (M14) was > 100 µM (inactive). For the same compound, the GI50 (NCI-H226) was > 100 µM (inactive), the GI50 (HCC 2998) was > 100 µM (inactive) and the GI50 (SNB-78) was > 100 µM (inactive). The GI50 (SK-MEL-2) was > 100 µM (inactive), the GI50 (DLD-1) was > 100 µM (inactive) and the GI50 (ACHN) was > 100 µM (inactive). The GI50 (RPMI-8226) was > 100 µM (inactive), the GI50 (HCT-15) was greater than 100 µM and the GI50 (SNB-19) was > 100 µM (inactive). For the same compound, the GI50 (DMS-114) was > 100 µM (inactive), the GI50 (SK-MEL-5) was > 100 µM (inactive) and the GI50 (LXFL 529) was > 100 µM (inactive). For the same compound, the GI50 (HCT-116) was > 100 µM (inactive), the GI50 (RXF 631) was > 100 µM (inactive) and the GI50 (CCRF-CEM) was > 100 µM (inactive). The GI50 (K562) was > 100 µM (inactive), the GI50 (OVCAR-8) was 57.8 µM (inactive) and the GI50 (DMS-273) was > 100 µM (inactive). For the same compound, the GI50 (OVCAR-5) was > 100 µM (inactive) and the GI50 (MOLT-4) was > 100 µM (inactive).
In the case of `CC1[C@@]2(O[C@@H]3C=C4C5CCC6Cc7nc8c(nc7C[C@@]6(C)C5C[C@H](O)[C@@]4(C)[C@]13O)CC1CCc3c(cc4c5c3C(O)C[C@H]5[C@@H](C)C3(O4)OC(C)(C)CC3O)[C@]1(C)C8)O[C@@](C)(CO)C[C@@H]2O` (stereo not given in full), the GI50 (XF498) is reported as 0.0162 µM (active), the GI50 (SW-620) is reported as 0.49 µM (active) and the GI50 (A549) is reported as 0.167 µM (active). For the same compound, the GI50 (M19-MEL) was 2.28 µM (inactive), the GI50 (LOX IMVI) was 0.23 µM (active) and the GI50 (COLO 205) was 0.57 µM (active). For the same compound, the GI50 (RXF 393) was 0.0418 µM (active), the GI50 (SN12C) was 2.3 µM (inactive) and the GI50 (UACC-62) was 0.169 µM (active). The GI50 (SF-295) was 0.06 µM (active), the GI50 (NCI-H522) was 0.745 µM (active) and the GI50 (NCI-H460) was 0.126 µM (active). The GI50 (CAKI-1) was 0.659 µM (active), the GI50 (UACC-257) was 1.3 µM (inactive) and the GI50 (UO-31) was 1.39 µM (inactive). The GI50 (KM-20L2) was 0.37 µM (active), the GI50 (KM12) was 1.29 µM (inactive) and the GI50 (OVCAR-3) was 1.32 µM (inactive). For the same compound, the GI50 (SK-OV-3) was 0.187 µM (active), the GI50 (HT-29) was 0.402 µM (active) and the GI50 (IGROV-1) was 0.345 µM (active). For the same compound, the GI50 (SNB-75) was 0.0182 µM (active), the GI50 (SF-268) was 0.191 µM (active) and the GI50 (HOP-62) was 0.102 µM (active). For the same compound, the GI50 (EKVX) was 0.146 µM (active), the GI50 (Malme-3M) was 0.22 µM (active) and the GI50 (SF-539) was 0.173 µM (active). The GI50 (U-251) was 0.0759 µM (active), the GI50 (NCI-H226) was 0.185 µM (active) and the GI50 (HCC 2998) was 1.91 µM (inactive). The GI50 (SNB-78) was 0.183 µM (active), the GI50 (SK-MEL-2) was 0.436 µM (active) and the GI50 (DLD-1) was 1.79 µM (inactive). For the same compound, the GI50 (MCF7) was 0.21 µM (active), the GI50 (RPMI-8226) was 0.0604 µM (active) and the GI50 (HCT-15) was 0.914 µM. The GI50 (A498) was 0.129 µM (active), the GI50 (SNB-19) was 1.38 µM (inactive) and the GI50 (DMS-114) was 0.119 µM (active). The GI50 (SK-MEL-5) was 0.303 µM (active), the GI50 (HCT-116) was 0.558 µM (active) and the GI50 (HL-60) was 0.191 µM (active). For the same compound, the GI50 (CCRF-CEM) was 0.164 µM (active), the GI50 (HOP-18) was 1.92 µM (inactive) and the GI50 (K562) was 0.259 µM (active). The GI50 (OVCAR-8) was 3.24 µM (inactive), the GI50 (DMS-273) was 0.0504 µM (active) and the GI50 (OVCAR-5) was 0.618 µM (active).
